Biological target: USP30 (Homo sapiens (Human), UniProt Q70CQ3)
Test: USP30 biochemical IC50 assay
Settings: fluorescence polarisation, TAMRA labelled peptide linked to ubiquitin substrate; enzyme and compound incubated 30 min at room temp; read after 2 h; read-out: IC50 range
Method: USP30 Biochemical IC50 Assay
Dilution plates were prepared at 21 times the final concentration (2100 μM for a final concentration of 100 μM) in 50% DMSO in a 96-well polypropylene V-bottom plate (Greiner #651201). A typical 8-point dilution series would be 100, 30, 10, 3, 1, 0.3, 0.1, 0.03 μM final. Reactions were performed in duplicate in black 384 well plates (small volume, Greiner 784076) in a final reaction volume of 21 μl. Either 1 μl of 50% DMSO or diluted compound was added to the plate. USP30 was diluted in reaction buffer (40 mM Tris, pH 7.5, 0.005% Tween 20, 0.5 mg/ml BSA, 5 mM beta-mercaptoethanol) to the equivalent of 0.05 μl/well and 10 μl of diluted USP30 was added to the compound. Enzyme and compound were incubated for 30 min at room temp. Reactions were initiated by the addition of 50 nM of TAMRA labelled peptide linked to ubiquitin via an iso-peptide bond as fluorescence polarisation substrate. Reactions were read immediately after addition of substrate and following a 2 h incubation at room temperature. Readings were performed on a Pherastar Plus (BMG Labtech). A Excitation 540 nm; A Emission 590 nm.

USP30, sequence (Q70CQ3 57-517): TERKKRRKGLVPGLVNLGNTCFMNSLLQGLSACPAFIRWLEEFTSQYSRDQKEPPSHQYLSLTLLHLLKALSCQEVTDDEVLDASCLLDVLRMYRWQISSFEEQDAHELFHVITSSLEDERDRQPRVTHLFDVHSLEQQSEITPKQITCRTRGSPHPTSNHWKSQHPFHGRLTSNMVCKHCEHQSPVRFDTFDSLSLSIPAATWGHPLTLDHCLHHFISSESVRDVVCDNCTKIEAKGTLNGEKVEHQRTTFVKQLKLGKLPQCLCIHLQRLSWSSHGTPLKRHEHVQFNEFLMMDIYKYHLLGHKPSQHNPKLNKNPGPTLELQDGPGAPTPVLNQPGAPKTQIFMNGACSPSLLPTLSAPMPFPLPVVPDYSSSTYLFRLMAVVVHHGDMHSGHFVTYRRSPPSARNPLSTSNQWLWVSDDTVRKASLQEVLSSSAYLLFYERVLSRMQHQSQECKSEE

SMILES | IC50 [nM]
CC(C(=O)N1CC(c2ccc(C#N)cc2)C1)[C@@H]1CCN(C#N)C1 (single isomer, unassigned) [Example 61] | 1000 to 10000
N#CN1CCC(CC(=O)Nc2nc3ccc(Cl)cc3s2)C1 (centres unmarked) [Example 5, N-(6-Chlorobenzo[d]thiazol-2-yl)-2-(1-cyanopyrrolidin-3-yl)acetamide] | 100 to 1000
COc1cccc(C2CN(C(=O)CC3CCN(C#N)C3)C2)c1 (centres unmarked) [Example 13, 3-(2-(3-(3-Methoxyphenyl)azetidin-1-yl)-2-oxoethyl)pyrrolidine-1-carbonitrile] | 100 to 1000
Cc1cc(C2CN(C(=O)CC3CCN(C#N)C3)C2)ccn1 (centres unmarked) [Example 15, 3-(2-(3-(2-Methylpyridin-4-yl)azetidin-1-yl)-2-oxoethyl)pyrrolidine-1-carbonitrile] | 1000 to 10000
C[C@@H](C(=O)Nc1cc(-c2cccc(Cl)c2)no1)[C@@H]1CCN(C#N)C1 [Example 53, (R)-N-(3-(3-chlorophenyl)isoxazol-5-yl)-2-((S)-1-cyanopyrrolidin-3-yl)propanamide] | 10 to 100
N#CN1CC[C@@H](CC(=O)Nc2nnc(-c3ccccc3)s2)C1 [Example 64, (S)-2-(1-cyanopyrrolidin-3-yl)-N-(5-phenyl-1,3,4-thiadiazol-2-yl)acetamide] | 100 to 1000
N#CN1CCC(=CC(=O)Nc2ccc(Cl)c(C(F)(F)F)c2)C1 [Example 20, N-(4-Chloro-3-(trifluoromethyl)phenyl)-2-(1-cyanopyrrolidin-3-ylidene)acetamide] | 100 to 1000
CN(C)C(=O)c1ccc(C2CN(C(=O)C[C@@H]3CCN(C#N)C3)C2)cc1 [Example 60, (S)-4-(1-(2-(1-cyanopyrrolidin-3-yl)acetyl)azetidin-3-yl)-N,N-dimethylbenzamide] | 100 to 1000
N#CN1CC[C@H](CC(=O)Nc2nnc(-c3ccccc3)s2)C1 [Example 63, (R)-2-(1-cyanopyrrolidin-3-yl)-N-(5-phenyl-1,3,4-thiadiazol-2-yl)acetamide] | 1000 to 10000
N#Cc1cccc(C2CN(C(=O)C[C@@H]3CCN(C#N)C3)C2)c1 [Example 56, (S)-3-(2-(3-(3-cyanophenyl)azetidin-1-yl)-2-oxoethyl)pyrrolidine-1-carbonitrile] | 100 to 1000
COc1ccc(C2CN(C(=O)C=C3CCN(C#N)C3)C2)cc1 [Example 17, 3-(2-(3-(4-Methoxyphenyl)azetidin-1-yl)-2-oxoethylidene)pyrrolidine-1-carbonitrile] | 100 to 1000
CN(Cc1ccc(Cl)c(Cl)c1)C(=O)C=C1CCN(C#N)C1 [Example 33, 2-(1-Cyanopyrrolidin-3-ylidene)-N-(3,4-dichlorobenzyl)-N-methylacetamide] | 100 to 1000
N#CN1CCC(CC(=O)Nc2ccc(Cl)c(Cl)c2)C1 (centres unmarked) [Example 9, 2-(1-Cyanopyrrolidin-3-yl)-N-(3,4-dichlorophenyl)acetamide] | 100 to 1000
N#CN1CCC(CC(=O)Nc2ncc(-c3ccccc3)s2)C1 (centres unmarked) [Example 10, 2-(1-Cyanopyrrolidin-3-yl)-N-(5-phenylthiazol-2-yl)acetamide] | 100 to 1000
N#CN1CCC(CC(=O)NCCc2ccccc2)C1 (centres unmarked) [Example 11, 2-(1-Cyanopyrrolidin-3-yl)-N-phenethylacetamide] | 1000 to 10000
N#CN1CCC(=CC(=O)NCc2cc(C(F)(F)F)ccc2F)C1 [Example 31, 2-(1-Cyanopyrrolidin-3-ylidene)-N-(2-fluoro-5-(trifluoromethyl)benzyl)acetamide] | 1000 to 10000
CN(C(=O)C=C1CCN(C#N)C1)c1nc2ccccc2s1 [Example 32, N-(Benzo[d]thiazol-2-yl)-2-(1-cyanopyrrolidin-3-ylidene)-N-methylacetamide] | 100 to 1000
CN(Cc1cc(-c2ccccc2)[nH]n1)C(=O)C=C1CCN(C#N)C1 [Example 30, 2-(1-Cyanopyrrolidin-3-ylidene)-N-methyl-N-((5-phenyl-1H-pyrazol-3-yl)methyl)acetamide] | 100 to 1000
N#CN1CC[C@H](CC(=O)Nc2cc(-c3cccc(Cl)c3)no2)C1 [Example 36, (R)—N-(3-(3-Chlorophenyl)isoxazol-5-yl)-2-(1-cyanopyrrolidin-3-yl)acetamide] | 1 to 10
CN(Cc1ccc2ncccc2c1)C(=O)C=C1CCN(C#N)C1 [Example 24, 2-(1-Cyanopyrrolidin-3-ylidene)-N-methyl-N-(quinolin-6-ylmethyl)acetamide] | 100 to 1000
CN(Cc1ccc(N2CCCC2)cc1)C(=O)C=C1CCN(C#N)C1 [Example 28, 2-(1-Cyanopyrrolidin-3-ylidene)-N-methyl-N-(4-(pyrrolidin-1-yl)benzyl)acetamide] | 100 to 1000

SMILES | IC50 [nM]
N#CN1CCC(CC(=O)Nc2cc(-c3ccccc3)no2)C1 (centres unmarked) [Example 6, 2-(1-Cyanopyrrolidin-3-yl)-N-(3-phenylisoxazol-5-yl)acetamide] | 100 to 1000
COc1ccc(C2CN(C(=O)CC3CCN(C#N)C3)C2)cc1 (centres unmarked) [Example 1, 3-(2-(3-(4-Methoxyphenyl)azetidin-1-yl)-2-oxoethyl)pyrrolidine-1-carbonitrile] | 100 to 1000
COc1ccc2nc(NC(=O)CC3CCN(C#N)C3)sc2c1 (centres unmarked) [Example 3, 2-(1-Cyanopyrrolidin-3-yl)-N-(6-methoxybenzo[d]thiazol-2-yl)acetamide] | 100 to 1000
C[C@H](C(=O)Nc1cc(-c2cccc(Cl)c2)no1)[C@@H]1CCN(C#N)C1 [Example 50, (S)-N-(3-(3-chlorophenyl)isoxazol-5-yl)-2-((S)-1-cyanopyrrolidin-3-yl)propanamide] | 1 to 10
N#CN1CCC(CC(=O)N2CC(c3ccc(O)cc3)C2)C1 (centres unmarked) [Example 58, 3-(2-(3-(4-hydroxyphenyl)azetidin-1-yl)-2-oxoethyl)pyrrolidine-1-carbonitrile] | 100 to 1000
COc1ccc(C2CN(C(=O)C[C@@H]3CCN(C#N)C3)C2)cc1-c1cnn(C)c1 [Example 67, (S)-3-(2-(3-(4-methoxy-3-(1-methyl-1H-pyrazol-4-yl)phenyl)azetidin-1-yl)-2-oxoethyl)pyrrolidine-1-carbonitrile] | 10 to 100
N#Cc1cccc(-c2nnc(NC(=O)CC3CCN(C#N)C3)o2)c1 (centres unmarked) [Example 49, N-(5-(3-cyanophenyl)-1,3,4-oxadiazol-2-yl)-2-(1-cyanopyrrolidin-3-yl)acetamide] | 100 to 1000
Cc1cc(C2CN(C(=O)C[C@@H]3CCN(C#N)C3)C2)ccc1C#N [Example 59, (S)-3-(2-(3-(4-cyano-3-methylphenyl)azetidin-1-yl)-2-oxoethyl)pyrrolidine-1-carbonitrile] | 10 to 100
COc1ccc(C2CN(C(=O)C[C@@H]3CCN(C#N)C3)C2)cc1-c1ccn[nH]1 [Example 39, (S)-3-(2-(3-(4-Methoxy-3-(1H-pyrazol-5-yl)phenyl)azetidin-1-yl)-2-oxoethyl)pyrrolidine-1-carbonitrile] | 10 to 100
CN(Cc1cc(-c2ccccc2)no1)C(=O)C=C1CCN(C#N)C1 [Example 27, 2-(1-Cyanopyrrolidin-3-ylidene)-N-methyl-N-((3-phenylisoxazol-5-yl)methyl)acetamide] | 100 to 1000
CN(Cc1cc(-c2ccccc2)on1)C(=O)C=C1CCN(C#N)C1 [Example 25, 2-(1-Cyanopyrrolidin-3-ylidene)-N-methyl-N-((5-phenylisoxazol-3-yl)methyl)acetamide] | 100 to 1000
COc1ccc(C2CN(C(=O)C[C@@H]3CCN(C#N)C3)C2)cc1 [Example 38, (S)-3-(2-(3-(4-Methoxyphenyl)azetidin-1-yl)-2-oxoethyl)pyrrolidine-1-carbonitrile] | 10 to 100
N#CN1CCC(=CC(=O)Nc2ccc3ncsc3c2)C1 [Example 21, N-(Benzo[d]thiazol-6-yl)-2-(1-cyanopyrrolidin-3-ylidene)acetamide] | 1000 to 10000
N#CN1CC[C@@H](CC(=O)Nc2nnc(-c3cccc(Cl)c3)o2)C1 [Example 48, (S)-N-(5-(3-chlorophenyl)-1,3,4-oxadiazol-2-yl)-2-(1-cyanopyrrolidin-3-yl)acetamide] | 100 to 1000
COCCOc1ccc(C2CN(C(=O)C[C@@H]3CCN(C#N)C3)C2)cc1 [Example 66, (S)-3-(2-(3-(4-(2-methoxyethoxy)phenyl)azetidin-1-yl)-2-oxoethyl)pyrrolidine-1-carbonitrile] | 1000 to 10000
N#CN1CCC(CC(=O)NC2CN(c3ccccn3)C2)C1 (centres unmarked) [Example 47, 2-(1-cyanopyrrolidin-3-yl)-N-(1-(pyridin-2-yl)azetidin-3-yl)acetamide] | 100 to 1000
CC(C)Oc1ccc(C2CN(C(=O)C[C@@H]3CCN(C#N)C3)C2)nc1 [Example 65, (S)-3-(2-(3-(5-isopropoxypyridin-2-yl)azetidin-1-yl)-2-oxoethyl)pyrrolidine-1-carbonitrile] | 100 to 1000
N#CN1CC[C@@H](CC(=O)Nc2cc(-c3cccc(Cl)c3)no2)C1 [Example 42, (S)-N-(3-(3-chlorophenyl)isoxazol-5-yl)-2-(1-cyanopyrrolidin-3-yl)acetamide] | 10 to 100
COc1cccc(-c2cc(NC(=O)C[C@H]3CCN(C#N)C3)on2)c1 [Example 43, (R)-2-(1-cyanopyrrolidin-3-yl)-N-(3-(3-methoxyphenyl)isoxazol-5-yl)acetamide] | 10 to 100
N#Cc1cccc(-c2cc(NC(=O)C[C@H]3CCN(C#N)C3)no2)c1 [Example 55, (R)-N-(5-(3-cyanophenyl)isoxazol-3-yl)-2-(1-cyanopyrrolidin-3-yl)acetamide] | 1 to 10

— patent US11014912B2, “Cyanopyrrolidine derivatives with activity as inhibitors of USP30” (MISSION THERAPEUTICS LIMITED, priority 2016, dated 2021)
